Where “and” joins values, the source holds several entries; their conditions need not be identical. Equal entries are not always repeated.
Assay: xn = mol fraction of the nth substance listed

CCCCN + Cc1ccccc1C
303.15 K, 101 kPa
Details | viscosity [mPa·s]
x1 = 0.0811 | 0.648
x1 = 0.1509 | 0.624
x1 = 0.2681 | 0.587
x1 = 0.3574 | 0.56
x1 = 0.4598 | 0.535
x1 = 0.546 | 0.518
x1 = 0.6419 | 0.499
x1 = 0.7306 | 0.484
x1 = 0.8169 | 0.469
x1 = 0.8974 | 0.457
x1 = 0.9503 | 0.45

Cc1ccncc1 + CCC(C)O
298.15 K, 101.33 kPa
Details | viscosity [mPa·s]
x2 = 0.0808 | 0.8992
x2 = 0.1812 | 0.9547
x2 = 0.2378 | 0.9923
x2 = 0.3187 | 1.047
x2 = 0.3221 | 1.052
x2 = 0.3999 | 1.131
x2 = 0.4574 | 1.186
x2 = 0.5582 | 1.328
x2 = 0.6284 | 1.445
x2 = 0.7034 | 1.608
x2 = 0.8528 | 2.092
x2 = 0.9272 | 2.446

CC[N+](=O)[O-] + ClC(Cl)(Cl)Cl
viscosity [mPa·s], 101 kPa
Details | x1 = 0.1 | x1 = 0.2 | x1 = 0.3 | x1 = 0.4 | x1 = 0.5 | x1 = 0.6 | x1 = 0.7 | x1 = 0.8 | x1 = 0.9
303.15 K | 0.7767 | 0.7448 | 0.7173 | 0.6971 | 0.6667 | 0.6402 | 0.6152 | 0.5924 | 0.5824
308.15 K | 0.7408 | 0.6988 | 0.6673 | 0.6509 | 0.6305 | 0.6024 | 0.5769 | 0.5634 | 0.5522
318.15 K | 0.6485 | 0.6213 | 0.597 | 0.5764 | 0.5533 | 0.5327 | 0.514 | 0.4996 | 0.4945

CCn1ccnc1 + CO
viscosity [mPa·s], 101 kPa
Details | 298.15 K | 308.15 K | 318.15 K
x1 = 0.0461 | 0.654 | 0.5768 | 0.5141
x1 = 0.1003 | 0.7495 | 0.6547 | 0.5802
x1 = 0.2389 | 1.012 | 0.8673 | 0.7489
x1 = 0.3039 | 1.133 | 0.967 | 0.8304
x1 = 0.3938 | 1.285 | 1.085 | 0.9324
x1 = 0.4588 | 1.383 | 1.163 | 0.9927
x1 = 0.5724 | 1.525 | 1.275 | 1.085
x1 = 0.7001 | 1.669 | 1.388 | 1.177
x1 = 0.794 | 1.766 | 1.467 | 1.24
x1 = 0.8988 | 1.861 | 1.536 | 1.296
x1 = 0.9431 | 1.89 | 1.56 | 1.316

CCCCN + c1ccccc1
viscosity [mPa·s], 101 kPa
Details | 303.15 K | 313.15 K
x1 = 0.009356 | 0.5633 | 0.4919
x1 = 0.01948 | 0.5628 | 0.4907
x1 = 0.02841 | 0.5622 | 0.4905
x1 = 0.03798 | 0.562 | 0.4893
x1 = 0.048 | 0.5618 | 0.4884
x1 = 0.0558 | 0.536 | –
x1 = 0.05882 | 0.5617 | 0.4876
x1 = 0.0669 | 0.5608 | 0.4869
x1 = 0.07642 | 0.5598 | 0.4861
x1 = 0.08586 | 0.5588 | 0.4852
x1 = 0.1165 | 0.516 | –
x1 = 0.2036 | 0.494 | –
x1 = 0.2875 | 0.479 | –
x1 = 0.382 | 0.465 | –
x1 = 0.5164 | 0.453 | –
x1 = 0.5676 | 0.451 | –
x1 = 0.6631 | 0.448 | –
x1 = 0.7656 | 0.447 | –
x1 = 0.8602 | 0.446 | –
x1 = 0.9278 | 0.444 | –
x2 = 0.0974 | 0.4454 | –
x2 = 0.1974 | 0.4466 | –
x2 = 0.5007 | 0.4542 | –
x2 = 0.6051 | 0.4738 | –
x2 = 0.7995 | 0.5056 | –
x2 = 0.9004 | 0.5322 | –

CCCCN + O
viscosity
Details | 298.15 K | 303.15 K | 308.15 K | 313.15 K | 318.15 K | 323.15 K
100 kPa, x1 = 0.1 | – | 1.869 mPa·s | – | 1.43 mPa·s | – | 1.133 mPa·s
100 kPa, x1 = 0.2 | – | 2.115 mPa·s | – | 1.604 mPa·s | – | 1.25 mPa·s
100 kPa, x1 = 0.3 | – | 1.933 mPa·s | – | 1.462 mPa·s | – | 1.143 mPa·s
100 kPa, x1 = 0.4 | – | 1.597 mPa·s | – | 1.234 mPa·s | – | 0.979 mPa·s
100 kPa, x1 = 0.5 | – | 1.273 mPa·s | – | 0.996 mPa·s | – | 0.808 mPa·s
100 kPa, x1 = 0.6 | – | 0.993 mPa·s | – | 0.796 mPa·s | – | 0.654 mPa·s
100 kPa, x1 = 0.7 | – | 0.786 mPa·s | – | 0.649 mPa·s | – | 0.547 mPa·s
100 kPa, x1 = 0.8 | – | 0.626 mPa·s | – | 0.533 mPa·s | – | 0.453 mPa·s
100 kPa, x1 = 0.9 | – | 0.541 mPa·s | – | 0.454 mPa·s | – | 0.393 mPa·s
101.33 kPa, x1 = 0.0001 | – | 0.8019 mPa·s | 0.7212 mPa·s | 0.6564 mPa·s | 0.6007 mPa·s | 0.5542 mPa·s
101.33 kPa, x1 = 0.1 | 2.372 mPa·s | 1.885 mPa·s | 1.642 mPa·s | 1.574 mPa·s and 1.441 mPa·s | 1.278 mPa·s | 1.142 mPa·s
101.33 kPa, x1 = 0.1998 | – | 2.149 mPa·s | 1.861 mPa·s | 1.625 mPa·s | 1.433 mPa·s | 1.271 mPa·s
101.33 kPa, x1 = 0.2 | 2.685 mPa·s | – | – | 1.742 mPa·s | – | –
101.33 kPa, x1 = 0.2999 | – | 1.964 mPa·s | 1.707 mPa·s | 1.494 mPa·s | 1.318 mPa·s | 1.172 mPa·s
101.33 kPa, x1 = 0.3999 | – | 1.601 mPa·s | 1.405 mPa·s | 1.242 mPa·s | 1.111 mPa·s | 0.9871 mPa·s
101.33 kPa, x1 = 0.4 | 2.006 mPa·s | – | – | 1.353 mPa·s | – | –
101.33 kPa, x1 = 0.5 | – | 1.259 mPa·s | 1.118 mPa·s | 0.9974 mPa·s | 0.8979 mPa·s | 0.8131 mPa·s
101.33 kPa, x1 = 0.5997 | – | 0.9797 mPa·s | 0.8813 mPa·s | 0.7976 mPa·s | 0.726 mPa·s | 0.6647 mPa·s
101.33 kPa, x1 = 0.6 | 1.153 mPa·s | – | – | 0.842 mPa·s | – | –
101.33 kPa, x1 = 0.7 | – | 0.7677 mPa·s | 0.701 mPa·s | 0.6419 mPa·s | 0.5911 mPa·s | 0.5472 mPa·s
101.33 kPa, x1 = 0.7999 | – | 0.6277 mPa·s | 0.5795 mPa·s | 0.5366 mPa·s | 0.4994 mPa·s | 0.4656 mPa·s
101.33 kPa, x1 = 0.8 | 0.686 mPa·s | – | – | 0.54 mPa·s | – | –
101.33 kPa, x1 = 0.9001 | – | 0.5178 mPa·s | 0.4829 mPa·s | 0.4518 mPa·s | 0.4243 mPa·s | 0.399 mPa·s

NCCC(=O)O + O
viscosity [mPa·s], 100 kPa
Details | x1 = 0.000358 | x1 = 0.000542 | x1 = 0.00072 | x1 = 0.000808 | x1 = 0.00108 | x1 = 0.00126 | x1 = 0.00144 | x1 = 0.0018
293.15 K | 1.006 | 1.008 | 1.009 | 1.011 | 1.014 | 1.016 | 1.018 | 1.022
298.15 K | 0.894 | 0.894 | 0.896 | 0.898 | 0.901 | 0.902 | 0.905 | 0.908
303.15 K | 0.8 | 0.8 | 0.802 | 0.804 | 0.805 | 0.807 | 0.809 | 0.812
308.15 K | 0.721 | 0.721 | 0.723 | 0.725 | 0.725 | 0.728 | 0.729 | 0.732
313.15 K | 0.653 | 0.653 | 0.655 | 0.657 | 0.657 | 0.659 | 0.66 | 0.663

Source: the CheMixHub viscosity set
